Tested on: Ba/F3 cells expressing the empty vector (GFP), CALR wild type (CALR wt-GFP) or CALR mutant (CALR del52-GFP)
Assay: Sensitivity of Ba/F3 cells to SAR302503 (CellTiter-Glo cell viability)
Assay type: cell-based, murine
Details: Ba/F3 CALR wild type vs CALR 52 base pair deletion mutant; 48 hours; dilution series, highest concentration 40 μM; 10 ng/ml interleukin-3; listed as JAK2 kinase inhibitor
Description: FIG. 7: The sensitivity of Ba/F3 cells to SAR302503. Ba/F3 cells expressing the empty vector (GFP), CALR wild type (CALR wt-GFP) or CALR mutant (CALR del52-GFP) were analyzed by defining cell viability after 48 hours in presence of […] SAR302503. For relative viability, relative luminescence units were normalized to the DMSO control. Error bars represent standard error of the mean.
The retrovirus was generated and cells were transduced as described before (Zuber et al, 2013). Briefly, PlatE cells (75% confluent in a 10 cm dish) were transfected with 20 μg of the respective viral vector using the Calcium Phosphate Transfection Kit (Sigma #CAPHOS). The medium was changed after 24 hours and viral supernatant was collected at 36, 40, 44 and 60 hours after transfection. […] The cells were analyzed for transduction efficiency by flow cytometry, 48 hours after the final transduction step. The GFP positive cells were sorted by FACS and the sorting efficiency was analyzed by flow cytometry.
To define the sensitivity to the inhibitor SAR302503 (Sanofi), Ba/F3 cells were plated in 96-well plates at 25000 cells per well in triplicates on a dilution series of SAR302503 (highest concentration 40 μM) and in presence of 10 ng/ml interleukin-3. After 48 hours cell viability was determined by the CellTiter-Glo® Luminescent Cell Viability Assay (Promega).

In the case of `Cc1cnc(Nc2ccc(OCCN3CCCC3)cc2)nc1Nc1cccc(S(=O)(=O)NC(C)(C)C)c1` [SAR302503], the “sensitivity of cells to the JAK2 kinase inhibitor SAR302503 (relative cell viability)” value is reported as “suppressed equally”.

Source: US9371570B2, “Mutant calreticulin for the diagnosis of myeloid malignancies” (CeMM—FORSCHUNGSZENTRUM FÜR MOLEKULARE MEDIZIN GmbH, priority 2013, dated 2016)
